Results from paper PMC4527243, “Role of electrostatic interactions for ligand recognition and specificity of peptide transporters” (BMC Biology, 2015).
Where a SMILES comes first, the peptide text is derived from it.

T1: YePEPT (Yersinia enterocolitica, UniProt A0A2R9TD79)
T1 construct: gene YEP4_02370; full-length gene in pZUDF21-rbs-3C-10His, C-terminal HRV3C site and deca-His tag, expressed in E. coli BL21(DE3) pLysS; uptake in whole cells
T1 sequence (A0A2R9TD79 1-511): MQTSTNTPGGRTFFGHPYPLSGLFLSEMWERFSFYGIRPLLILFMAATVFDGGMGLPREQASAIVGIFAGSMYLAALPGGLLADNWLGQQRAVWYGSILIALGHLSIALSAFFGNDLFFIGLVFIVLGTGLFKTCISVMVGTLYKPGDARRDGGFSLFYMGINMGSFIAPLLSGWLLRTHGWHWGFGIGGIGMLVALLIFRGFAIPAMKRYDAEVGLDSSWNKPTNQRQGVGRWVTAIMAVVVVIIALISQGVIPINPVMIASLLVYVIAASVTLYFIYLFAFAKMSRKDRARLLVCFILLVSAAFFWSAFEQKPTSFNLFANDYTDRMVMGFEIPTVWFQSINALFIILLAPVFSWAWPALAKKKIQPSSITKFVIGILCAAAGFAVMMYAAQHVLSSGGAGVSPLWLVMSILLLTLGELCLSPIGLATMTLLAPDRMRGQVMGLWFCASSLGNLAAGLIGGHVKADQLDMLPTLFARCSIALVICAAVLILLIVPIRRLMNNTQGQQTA

B1: YePEPT (Yersinia enterocolitica subsp. palearctica YE-P4) (protein)
chain: T1 sequence (A0A2R9TD79 1-511)
notes: full-length gene in pZUDF21-rbs-3C-10His, C-terminal HRV3C site and deca-His tag, expressed in E. coli BL21(DE3) pLysS; uptake in whole cells

Legend:
[1] = biological target: T1, YePEPT; assay: competition of [3H]Ala-Ala uptake in E. coli cells; format: cell-based, Escherichia coli
[2] = biological target: T1, YePEPT; assay: competition of [3H]Ala-Ala uptake in E. coli cells; format: cell-based; conditions: 50 μM [3H]Ala-Ala, 2.5 mM competitor, pH 7.5, room temperature
[3] = substrate: C[C@H](N)C(=O)N[C@@H](C)C(=O)O; assay: [3H]Ala-Ala uptake saturation in E. coli cells; format: cell-based, Yersinia enterocolitica; conditions: labelled compound, pH 7.5, 150 mM NaCl, room temperature, 100 s

Row | Molecule | Ki [1] [µM] | further results
1 | C[C@H](NC(=O)[C@@H](N)CC(=O)O)C(=O)O [Asp-Ala] (H-Asp-Ala-OH) | ~80 | –
2 | C[C@H](NC(=O)[C@@H](N)CCC(=O)O)C(=O)O [Glu-Ala] (H-Glu-Ala-OH) | ~50 | –
3 | C[C@H](NC(=O)[C@@H](N)Cc1ccc(O)cc1)C(=O)O [Tyr-Ala] | – | competition of [3H]Ala-Ala uptake in E. coli cells [2]: YePEPT also displayed specificity for Ala-Tyr and Tyr-Ala at comparable levels
4 | B1 | – | Km [3]: 200 µM
